Molecular target: T1, human GPR40 (Homo sapiens, UniProt O14842)
T1 construct: expressed in transfected cells
Test: Inositol Phosphate Turnover (IP1) Assay
Type: cell-based
Details: HEK cells stably expressing human GPR40, 7500 cells per well, CisBio IP-One kit
Experimental: Human GPR40 stable cell-lines were generated in HEK cells. The expression plasmids were transfected using lipofectamine (Life Technologies) following manufacturer's instructions. Stable cell-lines were generated following drug selection and single cell cloning.
The assay was performed in 384-well format. HEK cells stably expressing human GPR40 were plated at 7500 cells per well in growth medium (DMEM/10% fetal calf serum). Cell plates were then incubated 16 hours at 37 degrees in a 5% CO2 incubator. Measurement of Inositol Phosphate Turnover (IP1) was performed using the CisBio IP-One kit (Part number 62IPAPEB). After the 16 hour incubation, the growth media was removed by centrifugation using the BlueWasher (AusWasher GUI Ver. v1.0.1.8) Protocol #21-“Light Dry” and 10 ul of stimulation buffer (prepared as described in the kit) was added to each well. In a separate plate, compounds were diluted in DMSO (200-fold over the final concentration in the assay well) and 50 nl was acoustically transferred to the appropriate well in the assay cell plate. The plates were then incubated for 60 minutes at 37 degrees in a 5% CO2 incubator. 10 ul of detection buffer (also prepared as described in the IP-One kit) was added to each well and the plates were incubated at room temperature for 60 minutes in the dark. The plates were then read in a Perkin Elmer EnVision or equivalent reader able to measure FRET. Fluorescent ratio of emission at 665 and 620 nm was then converted to IP1 concentration by back calculating from an IP1 standard curve prepared at the time of the assay. Data was normalized to % activity using a reference compound and EC50s determined using a standard 4-parameter fit.

T1 sequence (O14842 whole entry): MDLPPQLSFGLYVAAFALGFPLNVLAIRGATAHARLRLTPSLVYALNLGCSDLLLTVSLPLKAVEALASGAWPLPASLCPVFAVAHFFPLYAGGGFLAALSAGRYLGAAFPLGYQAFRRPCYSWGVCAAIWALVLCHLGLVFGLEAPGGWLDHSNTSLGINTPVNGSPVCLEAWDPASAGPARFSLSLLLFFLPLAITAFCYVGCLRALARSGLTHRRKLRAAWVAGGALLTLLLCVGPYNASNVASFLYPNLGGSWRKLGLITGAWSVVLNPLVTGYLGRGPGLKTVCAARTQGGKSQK

Row | Structure (SMILES) | EC50 [nM]
1 | C[C@H](C(=O)O)[C@H](c1ccc2c(c1)OC(C1CC3CCCC(C1)N3[C@@H](C)c1cc(C(F)(F)F)ccc1C(F)(F)F)CC2)C1CC1 (mixture of isomers) [Example 33, (2S,3R)-3-((RS)-2-((1R,3RS,5S)-9-((S)-1-(2,5-bis(trifluoromethyl)-phenyl)ethyl)-9-aza-bicyclo[3.3.1]-nonan-3-yl)chroman-7-yl)-3-cyclopropyl-2-methyl-propanoic acid] | 750
2 | C[C@H](C(=O)O)[C@H](c1ccc2c(c1)OC(C1C[C@@H]3C[C@@H]1CN3[C@@H](C)c1cc(C(F)(F)F)ccc1C(F)(F)F)CC2)C1CC1 (stereo partly drawn) [Example 16, (2S,3R)-3-(2-((1S,4S)-2-((S)-1-(2,5-bis(trifluoromethyl)phenyl)ethyl)-2-aza-bicyclo-[2.2.1]heptan-5-yl)chroman-7-yl)-3-cyclopropyl-2-methylpropanoic Acid] | 1.28
3 | CC(C(=O)O)C(c1ccc2c(c1)OC(C1CC3CCCC(C1)N3C(C)c1cc(F)ccc1C(F)(F)F)CC2)C1CC1 (single isomer, unassigned) [Example 35] | 90.9
4 | C[C@H](C(=O)O)[C@H](c1ccc2c(c1)OC(C1[C@@H]3COC[C@H]1CN([C@@H](C)c1cc(F)ccc1C(F)(F)F)C3)CC2)C1CC1 (single isomer, unassigned) [Example 8] | 11.2
5 | C[C@H](C(=O)O)[C@H](c1ccc2c(c1)OC(C1CC3CCC(C1)N3[C@H](C)c1cc(F)ccc1C(F)(F)F)CC2)C1CC1 (stereo partly drawn) [Example 15, (2S,3R)-3-cyclopropyl-3-(2-((1R,5S)-8-((R)-1-(5-fluoro-2-(trifluoromethyl)-phenyl)ethyl)-8-aza-bicyclo[3.2.1]octan-3-yl)chroman-7-yl)-2-methylpropanoic acid] | 17.5
6 | C[C@H](C(=O)O)[C@H](c1ccc2c(c1)OC(C1C3COCC1CN([C@@H](C)c1cc(C(F)(F)F)ccc1C(F)(F)F)C3)CC2)C1CC1 (stereo partly drawn) [Example 6, (2S,3R)-3-(2-((1R,5S)-7-((S)-1-(2,5-bis(trifluoro-methyl)phenyl)ethyl)-3-oxa-7-azabicyclo[3.3.1]-nonan-9-yl)chroman-7-yl)-3-cyclopropyl-2-methyl-propanoic acid] | 21.5
7 | C[C@H](C(=O)O)[C@H](c1ccc2c(c1)OC(C1CC3CC1CN3[C@H](C)c1cc(F)ccc1C(F)(F)F)CC2)C1CC1 (single isomer, unassigned) [Example 20] | 13.4
8 | CC(C(=O)O)C(c1ccc2c(c1)OC(C1CC3CCCC(C1)N3C(C)c1cc(F)ccc1C(F)(F)F)CC2)C1CC1 (single isomer, unassigned) [Example 34] | 29.4
9 | C[C@H](C(=O)O)[C@H](c1ccc2c(c1)OC(C1C3COCC1CN([C@H](C)c1cc(C(F)(F)F)ccc1C(F)(F)F)C3)CC2)C1CC1 (stereo partly drawn) [Example 4, (2S,3R)-3-(2-((1R,5S)-7-((R)-1-(2,5-bis(trifluoromethyl)phenyl)ethyl)-3-oxa-7-azabicyclo[3.3.1]nonan-9-yl)chroman-7-yl)-3-cyclopropyl-2-methylpropanoic acid] | 36.6
10 | C[C@H](C(=O)O)[C@H](c1ccc2c(c1)OC(C1CC3CC1CN3[C@@H](C)c1cc(F)ccc1C(F)(F)F)CC2)C1CC1 (stereo partly drawn) [Example 18, (2S,3R)-3-cyclopropyl-3-(2-((1S,4S)-2-((S)-1-(5-fluoro-2-(trifluoromethyl)phenyl)ethyl)-2-azabicyclo[2.2.1]heptan-5-yl)chroman-7-yl)-2-methyl-propanoic acid] | 4.2
11 | C[C@H](C(=O)O)[C@H](c1ccc2c(c1)OC(C1CC3CCC(C1)N3[C@@H](C)c1cc(C(F)(F)F)ccc1C(F)(F)F)CC2)C1CC1 (stereo partly drawn) [Example 13, (2S,3R)-3-(2-((1R5S)-8-((S)-1-(2,5-bis(trifluoromethyl)phenyl)ethyl)-8-azabicyclo[3.2.1]octan-3-yl)chroman-7-yl)-3-cyclopropyl-2-methylpropanoic Acid] | 11.9
12 | C[C@H](C(=O)O)[C@H](c1ccc2c(c1)OC(C1CC3CC1CN3[C@H](C)c1cc(C(F)(F)F)ccc1C(F)(F)F)CC2)C1CC1 (stereo partly drawn) [Example 17, (2S,3R)-3-(2-((1S,4S)-2-((R)-1-(2,5-bis(trifluoromethyl)-phenyl)ethyl)-2-azabicyclo-[2.2.1]heptan-5-yl)chroman-7-yl)-3-cyclopropyl-2-methyl-propanic acid] | 0.688

The next lines start with the values.

Row | EC50 [nM] | Structure (SMILES)
13 | 3.14 | C[C@H](C(=O)O)[C@H](c1ccc2c(c1)OC(C1CC3CC1CN3[C@H](C)c1cc(F)ccc1C(F)(F)F)CC2)C1CC1 (single isomer, unassigned) [Example 21]
14 | 453 | C[C@H](C(=O)O)[C@H](c1ccc2c(c1)OC(C1[C@@H]3CC[C@@H]1CN([C@@H](C)c1cc(F)ccc1C(F)(F)F)C3)CC2)C1CC1 (single isomer, unassigned) [Example 30, (2S,3R)-3-cyclopropyl-3-((2R or 2S)-2-((1R,5S)-3-((S)-1-(5-fluoro-2-(tri-fluoromethyl)phenyl)eth-yl)-3-azabicyclo[3.2.1]-octan-8-yl)chroman-7-yl)-2-methylpropanoic acid]
15 | 2.09 | C[C@H](C(=O)O)[C@H](c1ccc2c(c1)OC(C13CCN([C@@H](C)c4cc(F)ccc4OC(F)(F)F)C(C1)C3)CC2)C1CC1 (some centres unmarked) [Example 42]
16 | 44.1 | CC(c1cc(F)ccc1C(F)(F)F)N1CC2CC1CC2C1CCc2ccc([C@H](C3CC3)[C@H](C)C(=O)O)cc2O1 (mixture of isomers) [Example 39, (2S,3R)-3-cyclopropyl-3-((R or S)-2-((R or S,R or S)-2-((RS)-1-(5-fluoro-2-(trifluoromethyl)-phenyl)ethyl)-2-azabicyclo-[2.2.1]heptan-5-yl)chroman-7-yl)-2-methylpropanoic acid]
17 | 12.3 | CC(c1cc(Cl)ccc1C(F)(F)F)N1C[C@H]2CC1CC2C1CCc2ccc([C@H](C3CC3)[C@H](C)C(=O)O)cc2O1 (single isomer, unassigned) [Example 36, (2S,3R)-3-((S or R)-2-((R or S, R or S)-2-(1-(5-chloro-2-(trifluoromethyl)-phenyl)-ethyl)-2-azabicyclo[2.2.1]heptan-5-yl)chroman-7-yl)-3-cyclopropyl-2-methylpropanoic Acid]
18 | 8.72 | C[C@H](C(=O)O)[C@H](c1ccc2c(c1)OC(CCN(C)Cc1cc(C(F)(F)F)ccc1C(F)(F)F)CC2)C1CC1 (mixture of isomers) [Example 41, (2S,3R)-3-(2-(2-((2,5-bis-(trifluoromethyl)benzyl)(methyl)amino)ethyl)chroman-7-yl)-3-cyclopropyl-2-methylpropanic acid]
19 | 71.4 | CC(c1cc(F)ccc1OC(F)(F)F)N1CC2CC1CC2C1CCc2ccc([C@H](C3CC3)[C@H](C)C(=O)O)cc2O1 (single isomer, unassigned) [Example 37, (2S,3R)-3-cyclopropyl-3-((R or S)-2-((R or S,R or S)-2-((RS)-1-(5-fluoro-2-(trifluoro-methoxy)-phenyl)ethyl)-2-aza-bicyclo[2.2.1]heptan-5-yl)-chroman-7-yl)-2-methyl-propanoic acid]
20 | 49.8 | C[C@H](C(=O)O)[C@H](c1ccc2c(c1)OC(C1[C@@H]3CC[C@H]1CN([C@H](C)c1cc(C(F)(F)F)ccc1C(F)(F)F)C3)CC2)C1CC1 (mixture of isomers) [Example 23, (2S,3R)-3-(2-((1R,5S)-3-((R)-1-(2,5-bis(trifluoromethyl)phenyl)ethyl)-3-azabicyclo[3.2.1]octan-8-yl)chroman-7-yl)-3-cyclopropyl-2-methylpropanoic Acid]

— patent US11072602B2, “Antidiabetic heterocyclic compounds” (Merck Sharp & Dohme Corp., priority 2016, dated 2021)
